PMC10237672, “Design and synthesis of novel anti-urease imidazothiazole derivatives with promising antibacterial activity against Helicobacter pylori” (PLOS ONE, 2023)
≈ marks a conversion by molar mass, not a printed value. Entries after “also recorded” stand apart in the source; their conditions may differ. Where two headings read alike, the source gives them in different places.

How the values were obtained:
[1] = tested on: H. pylori; test: MIC against H. pylori, agar dilution method; format: cell-based, Helicobacter pylori; conditions: for MIC: Helicobacter pylori, ATCC43504, read-out: MIC value against H. pylori ± SEM; for antibacterial activity against H. pylori (in words): compared within the series and with acetohydroxamic acid
[2] = tested on: E. coli; test: MIC against E. coli (urease negative), agar dilution method; format: cell-based, Escherichia coli; conditions: for MIC: Escherichia coli, ATCC25922, read-out: MIC ± SEM against E. coli (Urease-)
Method: (§1) The H. pylori reference strain ATCC 43504 (DSM 21031) was purchased from the German collection of microorganisms and cell cultures, GmbH (DSMZ; Germany). H. pylori was grown on Brucella agar plates (Sigma, USA) supplemented with 10% horse serum (Sigma, USA) for 72 h at 37 °C under 98% humidity and microaerophilic conditions (5% O2, 10% CO2, and 85% N2) using microaerophilic CampyGen 2.5 L pack (Oxoid, thermo scientific, UK) and anaerobic jar (Biomerieux, France). H. pylori culture was inspected after 3 to 5 days. The E. coli reference strain ATCC 25922 was purchased from the American Type Culture Collection (ATCC, Manassas, VA, USA). E. coli was grown on nutrient agar plates (Sigma, USA) for 24 h at 37 °C under aerobic conditions. Bacterial load was adjusted using a DensiCHEK PLUS device (Biomerieux, France). A regular gram stain (Biomerieux, France) was performed to confirm the identity and the morphology of H. pylori and E. coli as well as to confirm the absence of any contamination. Furthermore, a regular spotting checkup was also performed behind the micro broth dilution testing followed by a gram stain to confirm the identity of the bacteria and the absence of any potential contamination.
(§2) For MIC, the agar dilution method was performed as per the CLSI guidelines. 5 μL of the H. pylori suspension (2.0 McFarland) was plated on the Mueller–Hinton agar (Sigma, USA) supplemented with 10% horse serum including various concentrations of compounds 1a-1j and 2a-2j (0.8 mM, 0.4 mM, 0.2 mM, 0.1 mM, 0.05 mM, 0.025 mM, 0.0125 mM, and 0.006 mM). […] For the micro broth dilution test, compounds 1a-1j and 2a-2j were prepared by 2-fold serial dilution from a concentration of 0.8 mM to 0.006 mM and added to an equal H. pylori suspension of 1.0 McFarland in Mueller–Hinton broth (Sigma, USA) for 72 h. Final optical density of the bacterial suspension was measured by spectrophotometry using Synergy H1 microplate reader (BioTek, USA) at 600 nm. The half maximal inhibitory concentration (IC50) was calculated using Graph Pad Prism 8.02 for windows (Graph Pad Inc., La Jolla, CA, USA). All the tested derivatives compounds were dissolved in dimethyl sulfoxide (DMSO, Sigma, USA). […] Amoxicillin (Sigma, USA) (10 μg/mL and 0.007 μg/mL) and (12 μg/mL and 3 μg/mL) was used as a control antibiotic to confirm the agar dilution protocol for H. pylori and E. coli, respectively. Acetohydroxamic acid (AHA, Sigma, CAS number: 546-88-3) was used as a positive anti-urease control. All antimicrobial susceptibility experiments were repeated twice.

[3] = Caco-2 A-B permeability; format: in vitro ADME; conditions: human, pH 6.5–7.4, test concentration = MIC against H. pylori (19-50 μM), reference drugs 10 μM
Method: (§3) The apparent permeability coefficient (Papp) of the test compound was calculated as follows: Papp(cm/s)=VR*CR,end/Δt*1/A*(CD,mid‐CR,mid) where VR is the volume of the receiver chamber. CR,end is the concentration of the test compound in the receiver chamber at the end time point, Δt is the incubation time and A is the surface area of the cell monolayer. CD,mid is the calculated mid-point concentration of the test compound in the donor side, which is the mean value of the donor concentration at time 0 minute and the donor concentration at the end time point. CR,mid is the mid-point concentration of the test compound in the receiver side, which is one half of the receiver concentration at the end time point. Concentrations of the test compound were expressed as peak areas of the test compound.
(§4) The recovery of the test compound was calculated as follows: Recovery(%)=VD*CD,end+VR*CR,end/VD*CD0*100 where VD and VR are the volumes of the donor and receiver chambers, respectively. CD,end is the concentration of the test compound in the donor sample at the end time point. CR,end is the concentration of the test compound in the receiver sample at the end time point. CD0 is the concentration of the test compound in the donor sample at time zero. Concentrations of the test compound are expressed as peak areas of the test compound.
(§5) Fluorescein was used as the cell monolayer integrity marker. Fluorescein permeability assessment (in the A-B direction at pH 7.4 on both sides) was executed after the permeability assay for the test compound.

[4] = tested on: Caco-2 cells; test: Caco-2 A-B permeability; format: in vitro ADME
Method: as §3, §4, §5

[5] = tested on: E. coli; test: IC50 against E. coli (urease negative), micro broth dilution method; format: cell-based, Escherichia coli; conditions: E. coli ATCC 25922, micro broth dilution
Method: as §1, §2

[6] = tested on: AGS gastric cells; test: Cytotoxicity MTT assay against AGS gastric cells; format: cell-based, Human; conditions: for IC50: MTT, 48 h treatment, read-out: IC50 value against AGS cells ± SEM; for Selectivity index (SI): toward H. pylori vis-à-vis AGS cells (IC50 values)
Method: Human gastric adenocarcinoma AGS cells (ATCC CRL-1739) were purchased from the German Cell Lines Service (CLS, Germany) and cultured in RPMI-1640 medium (Sigma, USA) supplemented with 10% fetal bovine serum (FBS, Sigma, USA) and streptomycin-penicillin (100 μg/mL and 100 IU/mL) (Sigma, USA). Cells were incubated at 37 °C in a humidified atmosphere with 5% CO2 until 80–90% confluency.
The (4, 5-dimethythiazol-2-yl) -2, 5-diphenyltetrazolium bromide (MTT, Sigma, USA) assay was used to assess the cytotoxicity of the five most significant compounds. AGS cells (5×10^3/well) were seeded in 96-well plates for 24 h and treated with various concentrations (0.8 mM, 0.4 mM, 0.2 mM, 0.1 mM, 0.05 mM, 0.025 mM, 0.0125 mM, and 0.006 mM) of the five most significant anti-urease imidazothiazole derivatives compounds (compound 1a, 1d, 1h, 2d, and 2f). After 48 h treatment, 100 μL of MTT solution (50 μg/mL) was added to each well, and the cells were incubated for additional 2 h at 37 °C. The solubilization of MTT crystals was accomplished by adding 100 μL of DMSO followed by 10 min of incubation. The plates were shaken for 5 min to dissolve the MTT formazan crystals. The optical density of each well was determined using a Synergy H1 microplate reader (Biotek, USA) at a wavelength of 570 nm. The IC50 of the tested compounds was calculated using GraphPad Prism 8.0.2 for windows (GraphPad Inc., La Jolla, CA, USA) from two repeated experiments.

[7] = tested on: H. pylori; test: IC50 against H. pylori, micro broth dilution test; format: cell-based, Helicobacter pylori; conditions: H. pylori ATCC 43504, micro broth dilution, 72 h, OD 600 nm, read-out: IC50 value against H. pylori ± SEM
[8] = target: T1, Jack bean urease (Canavalia ensiformis, UniProt P07374); test: biochemical; format: biochemical
T1 construct: purchased Sigma Aldrich
Method: Reaction mixture comprising 40 μL of buffer (K2HPO4: 10 mmol/L, urea: 100 mmol/L, […]: 10 mmol/L, EDTA: 1 /L mmol, pH = 8.2) and 5 U/mL enzyme (10 μL) were pre-incubated with 10 μL of synthesized compounds (1 mM) and substrate urea (1 mM) were incubated at room temperature in 96 well plate for half an hour. After the incubation at room temperature, absorbance was taken at specific wavelength (630 nm) employing a microplate reader (Bio-Tek, USA) with R1 and R2 reagents in each well. The reactions were measured in triplicate fashion. To calculate the inhibition percentage following equation was used.
Percentage inhibition = 100 –[tested compound/control compound] × 100.

[9] = H. pylori ATCC 43504, agar dilution
[10] = E. coli ATCC 25922, agar dilution

T1 sequence (P07374 whole entry, looked up): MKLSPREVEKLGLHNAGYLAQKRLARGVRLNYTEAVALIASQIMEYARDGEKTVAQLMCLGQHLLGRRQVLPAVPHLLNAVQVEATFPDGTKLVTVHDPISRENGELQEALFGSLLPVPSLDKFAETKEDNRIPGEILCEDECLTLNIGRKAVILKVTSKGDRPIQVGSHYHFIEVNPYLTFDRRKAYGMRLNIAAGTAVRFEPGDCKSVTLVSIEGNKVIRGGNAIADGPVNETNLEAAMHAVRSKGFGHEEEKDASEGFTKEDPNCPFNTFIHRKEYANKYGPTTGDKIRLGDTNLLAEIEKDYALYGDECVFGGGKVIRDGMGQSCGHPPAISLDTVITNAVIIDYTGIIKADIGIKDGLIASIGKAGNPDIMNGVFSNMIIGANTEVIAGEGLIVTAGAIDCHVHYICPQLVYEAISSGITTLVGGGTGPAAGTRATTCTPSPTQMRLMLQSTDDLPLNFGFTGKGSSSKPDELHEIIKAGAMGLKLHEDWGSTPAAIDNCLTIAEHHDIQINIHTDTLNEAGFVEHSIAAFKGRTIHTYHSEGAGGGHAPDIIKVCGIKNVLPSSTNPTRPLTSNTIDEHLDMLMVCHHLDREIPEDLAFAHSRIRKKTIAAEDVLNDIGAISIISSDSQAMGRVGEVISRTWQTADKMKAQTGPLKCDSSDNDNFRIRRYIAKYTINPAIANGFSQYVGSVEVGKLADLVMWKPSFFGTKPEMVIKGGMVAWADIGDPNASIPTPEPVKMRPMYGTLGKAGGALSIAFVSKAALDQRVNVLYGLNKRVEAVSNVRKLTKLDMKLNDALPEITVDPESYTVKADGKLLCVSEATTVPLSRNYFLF

| SMILES | MIC [1, 9] [µM] | antibacterial activity against H. pylori (in words) [1] | MIC [2, 10] [µM] | Papp [3] [×10⁻⁶ cm/s] | recovery [3] [%] | Caco-2 permeability (in words) [4] | IC50 ± SEM against E. coli (Urease-) [5] | IC50 ([6]; Homo sapiens, AGS) [µM] | Selectivity index (SI) [6] | IC50 ([7]; Helicobacter pylori, ATCC43504) [µM] | IC50 [8] [µM] | melting point [°C] | MIC value against H. pylori ± SEM [1, 9] [µM] | MIC ± SEM against E. coli (Urease-) [2, 10] [µM] | IC50 ([5]; read-out: IC50 ± SEM against E. coli (Urease-)) [µM] | IC50 [6] [µM] | IC50 [7] [µM] | activity against urease-negative E. coli (in words) ([2]; E. coli, up to 0.8 mM) |
| --- | --- | --- | --- | --- | --- | --- | --- | --- | --- | --- | --- | --- | --- | --- | --- | --- | --- | --- |
| CS(=O)(=O)c1cccc(-c2c(-c3cccc(OS(=O)(=O)C4CCCCC4)c3)nc3sccn23)c1 [Compound 2d, 3-(5-(3-(Methylsulfonyl)phenyl)imidazo[2,1-b]thiazol-6-yl)phenyl cyclohexane-1-sulfonate] | 22 ± 4 (≈ 11.4 µg/mL) | strongest antibacterial activity | > 800 | 0.07 ± 0.02 | 73.5 | lowest permeability; also recorded: low permeability | No effect | 30 ± 11 | 2.0 | 15 ± 3 | 4.46 ± 0.12 | 142 to 144 |  |  |  |  |  |  |
| CC(=O)NO [Acetohydroxamic acid (AHA), Acetohydroxamic acid, reference compound] |  |  |  |  |  |  |  |  |  |  |  |  | 12500 ± 0 (≈ 938 µg/mL) | 100000 | 39900 ± 1780 | 5900 ± 300 | 7380 ± 320 |  |
| CS(=O)(=O)Oc1cccc(-c2nc3sccn3c2-c2ccccc2)c1 [Compound 1a, 3-(5-Phenylimidazo[2,1-b]thiazol-6-yl)phenyl methanesulfonate] | 19 ± 4 | strongest antibacterial activity | > 800 | 18.6 ± 0.79 | 34.4 |  | No effect | 71 ± 17 | 3.09 | 23 ± 9 | 4.1 ± 0.03 | 105 to 108 |  |  |  |  |  |  |
| CS(=O)(=O)c1cccc(-c2c(-c3cccc(OS(=O)(=O)c4ccc(F)cc4)c3)nc3sccn23)c1 [Compound 2f, 3-(5-(3-(Methylsulfonyl)phenyl)imidazo[2,1-b]thiazol-6-yl)phenyl 4-fluorobenzenesulfonate] | 38 ± 13 (≈ 20.1 µg/mL) | strongest antibacterial activity | > 800 | 1.98 ± 0.23 | 71.8 | lowest permeability; also recorded: low permeability | No effect | 45 ± 5 | 1.95 | 23 ± 8 | 7.19 ± 0.09 |  |  |  |  |  |  |  |
| NS(=O)(=O)Oc1cccc(-c2nc3sccn3c2-c2ccccc2)c1 [Compound 1h, 3-(5-Phenylimidazo[2,1-b]thiazol-6-yl)phenyl sulfamate] | 50 (≈ 18.6 µg/mL) | strongest antibacterial activity | > 800 | 16.9 ± 0.87 | 32.6 |  | No effect | 145 ± 45 | 5.18 | 28 ± 1 | 2.96 ± 0.02 | 173 to 175 |  |  |  |  |  |  |
| O=S(=O)(Oc1cccc(-c2nc3sccn3c2-c2ccccc2)c1)C1CCCCC1 [Compound 1d, 3-(5-Phenylimidazo[2,1-b]thiazol-6-yl)phenyl cyclohexane-1-sulfonate] | 31 ± 11 (≈ 13.6 µg/mL) | strongest antibacterial activity | > 800 | 0.04 ± 0.01 | 63 | lowest permeability; also recorded: poor Caco-2 A-B permeability; also recorded: low permeability | No effect | 121 ± 44 | 6.05 | 20 ± 3 | 3.09 ± 0.07 | 118 to 120 |  |  |  |  |  | did not show activity |
